Assay: in vitro
Settings: human, hek293t cells
For `C=CC(=O)N(C)Cc1cccnc1` [3-L11, N-methyl-N-[(pyridin-3-yl)methyl]prop-2-enamide], the viability at 48 h, 25 µM was 82%.
Molecule `C=CC(=O)N1CCC(C(=O)NCc2cc(=O)n3ccccc3n2)CC1` [3-L12, N-({4-oxo-4H-pyrido[1,2-a]pyrimidin-2-yl}methyl)-1-(prop-2-enoyl)piperidine-4-carboxamide] has a viability at 48 h, 25 µM of 82.7%.
In the case of `C=CC(=O)NCC1CCCC1N1CCCS1(=O)=O` (stereo not shown) [3-L13, N-{[2-(1,1-dioxo-1lambda6,2-thiazolidin-2-yl)cyclopentyl]methyl}prop-2-enamide], the viability at 48 h, 25 µM is reported as 78.9%.
Molecule `C=CC(=O)NCc1cc2cc(C)ccc2o1` [3-L14, N-[(5-methyl-1-benzofuran-2-yl)methyl]prop-2-enamide] has a viability at 48 h, 25 µM of 85.4%.
`C=CC(=O)NCc1c(F)cccc1S(=O)(=O)N(C)C` [3-L15, N-{[2-(dimethylsulfamoyl)-6-fluorophenyl]methyl}prop-2-enamide] gave a viability at 48 h, 25 µM of 83.2%.
For `C=CC(=O)N1CC(C)c2ccc(S(N)(=O)=O)cc21` (stereo not shown) [3-L16, 3-methyl-1-(prop-2-enoyl)-2,3-dihydro-1H-indole-6-sulfonamide], the viability at 48 h, 25 µM was 1.43%.
For `C=CC(=O)NC1CC(C)Cc2cc(OC)ccc21` (stereo not shown) [3-L17, N-(6-methoxy-3-methyl-1,2,3,4-tetrahydronaphthalen-1-yl)prop-2-enamide], the viability at 48 h, 25 µM was 61.6%.
For `C=CC(=O)Nc1ccc(C2=NNC(=O)CO2)cc1` [3-L18, N-[4-(5-oxo-5,6-dihydro-4H-1,3,4-oxadiazin-2-yl)phenyl]prop-2-enamide], the viability at 48 h, 25 µM was 67.1%.
Work on `C=CC(=O)NCC(OC)C1CCOC1` (stereo not shown) [3-L19, N-[2-methoxy-2-(oxolan-3-yl)ethyl]prop-2-enamide] yielded a viability at 48 h, 25 µM of 85.8%.
`C=CC(=O)NCc1cn2c(n1)CCCC2` [3-L20, N-({5H,6H,7H,8H-imidazo[1,2-a]pyridin-2-yl}methyl)prop-2-enamide] gave a viability at 48 h, 25 µM of 103%.
Molecule `C=CC(=O)NCc1ccccc1N1CCCC(C(N)=O)C1` (stereo not shown) [3-L21, 1-{2-[(prop-2-enamido)methyl]phenyl}piperidine-3-carboxamide] has a viability at 48 h, 25 µM of 68.9%.
With `C=CC(=O)NCc1ccc(C(=O)N2CCC[C@@H]2C(N)=O)cc1` [3-L22, (2R)-1-{4-[(prop-2-enamido)methyl]benzoyl}pyrrolidine-2-carboxamide] the viability at 48 h, 25 µM was 81.9%.
`C=CC(=O)N1CCn2cccc2C1c1ccncc1` (stereo not shown) [3-M03, 1-[1-(pyridin-4-yl)-1H,2H,3H,4H-pyrrolo[1,2-a]pyrazin-2-yl]prop-2-en-1-one] showed a viability at 48 h, 25 µM of 45.2%.
For `C=CC(=O)N1CCC(C(=O)NC2(c3ccc(F)cc3F)CCC2)CC1` [3-M04, N-[1-(2,4-difluorophenyl)cyclobutyl]-1-(prop-2-enoyl)piperidine-4-carboxamide], the viability at 48 h, 25 µM was 97.5%.
Molecule `C=CC(=O)N1CCC(C(=O)NC(C)CC2CC2)CC1` (stereo not shown) [3-M05, N-(1-cyclopropylpropan-2-yl)-1-(prop-2-enoyl)piperidine-4-carboxamide] has a viability at 48 h, 25 µM of 53.3%.
With `C=CC(=O)N1CCC(C(=O)NCC(O)c2cccc(Cl)c2)CC1` (stereo not shown) [3-M06, N-[2-(3-chlorophenyl)-2-hydroxyethyl]-1-(prop-2-enoyl)piperidine-4-carboxamide] the viability at 48 h, 25 µM was 98.1%.
Molecule `C=CC(=O)NCC1CCc2cccnc21` (stereo not shown) [3-M07, N-({5H,6H,7H-cyclopenta[b]pyridin-7-yl}methyl)prop-2-enamide] has a viability at 48 h, 25 µM of 47.8%.
`C=CC(=O)Nc1cccc(S(=O)(=O)C2CCOCC2)c1` [3-M08, N-[3-(oxane-4-sulfonyl)phenyl]prop-2-enamide] gave a viability at 48 h, 25 µM of 96.8%.
In the case of `C=CC(=O)N1CCCC1c1cn(C)nc1C` (stereo not shown) [3-M09, 1-[2-(1,3-dimethyl-1H-pyrazol-4-yl)pyrrolidin-1-yl]prop-2-en-1-one], the viability at 48 h, 25 µM is reported as 50.9%.
Molecule `C=CC(=O)N1CCCn2nc(CO)cc2C1` [3-M10, 1-[2-(hydroxymethyl)-4H,5H,6H,7H,8H-pyrazolo[1,5-a][1,4]diazepin-5-yl]prop-2-en-1-one] has a viability at 48 h, 25 µM of 109%.
In the case of `C=CC(=O)N1CCN(C(C)c2nc(C)no2)CC1` (stereo not shown) [3-M11, 1-{4-[1-(3-methyl-1,2,4-oxadiazol-5-yl)ethyl]piperazin-1-yl}prop-2-en-1-one], the viability at 48 h, 25 µM is reported as 61%.
`C=CC(=O)N1CCCC(n2cc(C)cn2)C1` (stereo not shown) [3-M12, 1-[3-(4-methyl-1H-pyrazol-1-yl)piperidin-1-yl]prop-2-en-1-one] showed a viability at 48 h, 25 µM of 94.4%.
Work on `C=CC(=O)NCCn1nc(C)cc1C` [3-M13, N-[2-(3,5-dimethyl-1H-pyrazol-1-yl)ethyl]prop-2-enamide] yielded a viability at 48 h, 25 µM of 56.9%.
For `C=CC(=O)N1CCC(C(=O)NC(C)(C)CSC)CC1` [3-M14, N-[2-methyl-1-(methylsulfanyl)propan-2-yl]-1-(prop-2-enoyl)piperidine-4-carboxamide], the viability at 48 h, 25 µM was 153%.
`C=CC(=O)N1CCCn2ncc(C3CC3)c21` [3-M15, 1-{3-cyclopropyl-4H,5H,6H,7H-pyrazolo[1,5-a]pyrimidin-4-yl}prop-2-en-1-one] showed a viability at 48 h, 25 µM of 1.25%.
Molecule `C=CC(=O)N1CCC(C(=O)Oc2ccc(NC(C)=O)cc2)CC1` [3-M16, 4-acetamidophenyl 1-(prop-2-enoyl)piperidine-4-carboxylate] has a viability at 48 h, 25 µM of 93.3%.
In the case of `C=CC(=O)NCCC(=O)N1CCC(c2ncccn2)CC1` [3-M17, N-{3-oxo-3-[4-(pyrimidin-2-yl)piperidin-1-yl]propyl}prop-2-enamide], the viability at 48 h, 25 µM is reported as 62.4%.
With `C=CC(=O)Nc1cnn(CCN2CCCC2=O)c1` [3-M18, N-{1-[2-(2-oxopyrrolidin-1-yl)ethyl]-1H-pyrazol-4-yl}prop-2-enamide] the viability at 48 h, 25 µM was 90%.
Molecule `C=CC(=O)N(CC)CC(=O)Nc1ccc2c(c1)nc1n2CCCCC1` [3-M19, N-[({1,8-diazatricyclo[7.5.0.0,2,7]tetradeca-2,4,6,8-tetraen-5-yl}carbamoyl)methyl]-N-ethylprop-2-enamide] has a viability at 48 h, 25 µM of 35.8%.
`C=CC(=O)NCCc1nccs1` [3-M20, N-[2-(1,3-thiazol-2-yl)ethyl]prop-2-enamide] gave a viability at 48 h, 25 µM of 89.6%.
Molecule `C=CC(=O)N1CCC(C(=O)NCc2ccc(-c3n[nH]c(C)n3)cc2)CC1` [3-M21, N-{[4-(5-methyl-1H-1,2,4-triazol-3-yl)phenyl]methyl}-1-(prop-2-enoyl)piperidine-4-carboxamide] has a viability at 48 h, 25 µM of 56.1%.
`C=CC(=O)NC(C)Cc1cccn1C` (stereo not shown) [3-M22, N-[1-(1-methyl-1H-pyrrol-2-yl)propan-2-yl]prop-2-enamide] gave a viability at 48 h, 25 µM of 70.2%.
In the case of `C=CC(=O)N1CCC(C(=O)NCc2ccccc2-n2cccn2)CC1` [3-N03, 1-(prop-2-enoyl)-N-{[2-(1H-pyrazol-1-yl)phenyl]methyl}piperidine-4-carboxamide], the viability at 48 h, 25 µM is reported as 68%.
`C=CC(=O)N1CCC(c2nnc(C)o2)CC1` [3-N04, 1-[4-(5-methyl-1,3,4-oxadiazol-2-yl)piperidin-1-yl]prop-2-en-1-one] gave a viability at 48 h, 25 µM of 87.3%.
With `C=CC(=O)N1CCC(C(=O)NCc2ccc(C(N)=O)nc2)CC1` [3-N05, 5-({[1-(prop-2-enoyl)piperidin-4-yl]formamido}methyl)pyridine-2-carboxamide] the viability at 48 h, 25 µM was 59.8%.
For `C=CC(=O)NCc1ccc(C(=O)N2CCCOC(C)(C)C2)cc1` [3-N06, N-{[4-(2,2-dimethyl-1,4-oxazepane-4-carbonyl)phenyl]methyl}prop-2-enamide], the viability at 48 h, 25 µM was 70.7%.
`C=CC(=O)NCc1nnc2n1CCCCC2` [3-N07, N-({5H,6H,7H,8H,9H-[1,2,4]triazolo[4,3-a]azepin-3-yl}methyl)prop-2-enamide] showed a viability at 48 h, 25 µM of 43.2%.

Reference: PMC11995724, “Antibiotic target discovery by integrated phenotypic and activity-based profiling of electrophilic fragments” (Cell chemical biology, 2025)
